Test results: US20050244472A1, “Intraocular drug delivery systems containing excipients with reduced toxicity and related methods” (Allergan, Inc., priority 2004, published 2005)
Like-named read-outs stand apart in the source and are kept apart here.

Legend:
in vitro = conditions: human
From the text: (§1) Cell viability and cell morphology were examined to evaluate the toxicity of excipients on retinal pigment epithelial cells. The human retina cell line used in these experiments is the ARPE-19 cell line (human adult-derived retinal pigmented epithelial cells). […] They form tight-junctions with transepithelial resistance of monolayers (Dunn K C et al., supra). From a molecular standpoint, it appears that ARPE-19 express a huge pattern of genes similar to those expressed by human RPE from fresh explant which could account for their physiological function (Klimanskaya I. et al., “Derivation and comparative assessment of retinal pigment epithelium from human embryonic stem cells using transcriptomics”, Cloning and Stem Cells, 2004, 6(3):217-45).
(§2) ARPE-19 cells are widely used as a retinal model that resemble physiological properties of RPE cells. Similar methods of culturing ARPE-19 cells and cytotoxicity assays can be found in Yeung et al., “Cytotoxicity of triamcinolone on cultured human retinal pigment epithelial cells: comparison with dexamethasone and hydrocortisone”, Jpn J. Ophthalmol, 2004; 48:236-242. Cell viability and cell morphology were examined using conventional colormetric and visual methods. Viability and morphology measurements were obtained at 24 hours, 48 hours, and 72 hours after exposure to an excipient composition.
(§3) To assess cell viability, mitochondrial metabolism was quantified through conventional colorometric assays (i.e., the MTT assay). This colorimetric assay utilizes 3-(4,5-dimethylthiazol-2-yl)-2,5-diphenyltetrazolium bromide (MTT) and correlates mitochondrial metabolism and cell viability through measurement of dehydrogenase activity which converts a substrate into crystal. More specifically, the assay measures the activity of living cells through mitochondrial dehydrogenases. When dissolved in culture cell medium, MTT solution appears dark orange. Mitochondrial dehydrogenases of viable cells degrade MTT by cleaving the tetrazolium ring yielding to formation of a purple formazan crystal, which is insoluble in water. Crystals are subsequently dissolved in isopropanol solution. A resulting purple solution is spectrophotometrically measured. Cell viability is relative to amount of formazan and calculated as a percentage of remaining treated compared to non-treated cells.
(§4) Results from the MTT assay were expressed as a percentage of cell viability calculated using the following equation: % cell viability=ODtest/ODcontrol×100.
(§5) For each experiment, one concentration was performed in triplicate. Each point was spectrophotometrically read twice. Average of readings was calculated, then average from these 3 values was determined.
(§6) After 3 experiments were independently completed under the same conditions, a graph was plotted with cell viability expressed as a function of concentration (dose response) and for various incubation period (time course). The IC50 was then estimated based on the graphed data.
(§7) More specifically, cell density in 24-multiwell plates was observed on the day of the experiment to check if confluence of the cells was reached. Aliquots of MTT concentrated solutions were removed from a freezer at −20° C. and thawed at room temperature. Cell medium was warmed at 37° C. before use. Appropriated tubes for diluting compounds were prepared. Higher concentrations of each excipient agent was prepared. Serial dilution was then performed in cell medium (DMEM:F12+10% FBS).
(§8) Cell culture medium in the 24-well plate was removed using vacuum-pump. Cells were then stimulated with 0.5 ml final volume for each concentration of one given excipient agent. Distribution of the excipient-containing solution was performed using automated pipet-aid in sterile environment (under PSM) or not depending on time of compounds and duration of incubation.
(§9) After stimulation, cells were replaced in a CO2 incubator for the required time of exposure.

ARPE-19 cells [1] = test: in vitro
From the text: as §1, §2, §3, §4, §5, §6, §7, §8, §9

ARPE-19 cells [2] = assay type: cell-based
Experimental: Cell morphology was visualized using light microscopy. Cell morphology observation using light microscopy permits determination of (i) cell number and density and (ii) whether or not cells in contact with an excipient agent display modified phenotype compared to a non-treated population of cells.
Cell morphology was analyzed in parallel by semi-quantitative scoring ranging from 5 to 1, from basal to lethal phenotype respectively, as shown in FIG. 23.
More specifically, cells were removed from an incubator for examination. Morphological shape of cells was visualized using a light microscope and CCD camera. Every 3 wells of a given concentration was observed through image analysis software. Then, a representative photograph describing the average appearance of cells was saved. The supernatant was either, kept for further predefined experiments to perform, or removed using vacuum-pump.
Resulting semi-quantitative scoring is represented as a function of time course and dose response. Score 5: wild type phenotype of non-treated cells, 100% confluent adherent cells. This phenotype very much vary following post-seeding time. For example, at confluence ARPE-19 cells at 1 day appear well defined with visible outer membrane and dark grey cytoplasm. After 3 days of confluence, limits between cells become less visible and cells adopt a more hexagonal shape and constitute an epithelium-like uniform dense structure. Score 4: density<100%. Cell shape has changed, some spaces are present between cells, few cells possibly detached. Score 3: […]. Spaces are sometimes present among cells, areas appears confluent while in others, cells detached. General cell shape starts showing non negligible alterations. Score 2: Cell density<50%. Cells adopt exclusively stressed appearance, presence of mass dead floating cells. Score 1: Cell density<10%. Presence of almost exclusively dead cells.
Based on quotation, each condition of the applied compound was given a score which allow to a morphology evolution profile to be prepared, ie. cell morphology as a function of compound concentration and time of exposure. […]

[3] = pH of excipient-containing incubating solutions; assay type: physicochemical
Experimental: (§10) For each concentration of tested compound, pH and osmolarity parameters were measured.

[4] = Osmolarity of excipient-containing incubating solutions; assay type: physicochemical
Experimental: Osmolarity was measured using osmometer type 13/13DR from Roebling (Berlin, GR).
as §10

[5] = 0.05% excipient dilution in culture medium
[6] = 0.1% excipient dilution in culture medium
[7] = 0.5% excipient dilution in culture medium
[8] = 1% excipient dilution in culture medium
[9] = 2% excipient dilution in culture medium
[10] = […] excipient dilution in culture medium

OCc1ccccc1 [Benzyl alcohol, benzyl alcohol]
cytotoxicity at 0.05 % (in vitro): ~45%
viability at 24 h, 0.05 % (in vitro; Cell Viability): 56.1%
viability at 24 h, 0.1 % (in vitro; Cell Viability): 48%
viability at 48 h, 0.05 % (in vitro; Cell Viability): 60.9%
viability at 48 h, 0.1 % (in vitro; Cell Viability): 49%
viability at 48 h, 0.5 % (in vitro; Cell Viability): 1.2%
viability at 72 h, 0.05 % (in vitro; Cell Viability): 57.5%
viability at 72 h, 0.1 % (in vitro; Cell Viability): 49.1%
viability at 24 h, 0.05 % (in vitro; Cell Viability, Mean (%)): 55.7%
viability at 24 h, 0.1 % (in vitro; Cell Viability, Mean (%)): 45.9%
viability at 24 h, 0.5 % (in vitro; Cell Viability, Mean (%)): 13.3%
viability at 24 h, 1 % (in vitro; Cell Viability, Mean (%)): 0.4%
viability at 24 h, 2 % (in vitro; Cell Viability, Mean (%)): 0.3%
viability at 24 h, […] (in vitro; Cell Viability, Mean (%)): 0.4%
viability at 48 h, 0.05 % (in vitro; Cell Viability, Mean (%)): 57.3%
viability at 48 h, 0.1 % (in vitro; Cell Viability, Mean (%)): 42%
viability at 48 h, 0.5 % (in vitro; Cell Viability, Mean (%)): 1.5%
viability at 48 h, 1 % (in vitro; Cell Viability, Mean (%)): 1.5%
viability at 48 h, 2 % (in vitro; Cell Viability, Mean (%)): 1.2%
viability at 48 h, […] (in vitro; Cell Viability, Mean (%)): 1.3%
viability at 72 h, 0.05 % (in vitro; Cell Viability, Mean (%)): 53.7%
viability at 72 h, 0.1 % (in vitro; Cell Viability, Mean (%)): 42.2%
viability at 72 h, 0.5 % (in vitro; Cell Viability, Mean (%)): 1.1%
viability at 72 h, 1 % (in vitro; Cell Viability, Mean (%)): 0.9%
viability at 72 h, 2 % (in vitro; Cell Viability, Mean (%)): 1%
viability at 72 h, […] (in vitro; Cell Viability, Mean (%)): 1%
overall cytotoxicity to ARPE-19 cells (conclusion in words) (ARPE-19 cells [1]): very aggressive impact
living cells (morphology observation) (ARPE-19 cells [2]): no living cells survived
Morphology limit concentration (%) (ARPE-19 cells [2]; human): 0.07%
Cell Morphology score, Mean (ARPE-19 cells [2]; human, 24 h, 0.05 %): 3.3
Cell Morphology score, Mean (ARPE-19 cells [2]; human, 24 h, 0.1 %): 3.0
Cell Morphology score, Mean (ARPE-19 cells [2]; human, 24 h, 0.5 %): 1.0
Cell Morphology score, Mean (ARPE-19 cells [2]; human, 24 h, 1 %): 1.0
Cell Morphology score, Mean (ARPE-19 cells [2]; human, 24 h, 2 %): 1.0
Cell Morphology score, Mean (ARPE-19 cells [2]; human, 24 h, […]): 1.0
Cell Morphology score, Mean (ARPE-19 cells [2]; human, 48 h, 0.05 %): 3.7
Cell Morphology score, Mean (ARPE-19 cells [2]; human, 48 h, 0.1 %): 3.0
Cell Morphology score, Mean (ARPE-19 cells [2]; human, 48 h, 0.5 %): 1.0
Cell Morphology score, Mean (ARPE-19 cells [2]; human, 48 h, 1 %): 1.0
Cell Morphology score, Mean (ARPE-19 cells [2]; human, 48 h, 2 %): 1.0
Cell Morphology score, Mean (ARPE-19 cells [2]; human, 48 h, […]): 1.0
Cell Morphology score, Mean (ARPE-19 cells [2]; human, 72 h, 0.05 %): 3.3
Cell Morphology score, Mean (ARPE-19 cells [2]; human, 72 h, 0.1 %): 3.0
Cell Morphology score, Mean (ARPE-19 cells [2]; human, 72 h, 0.5 %): 1.0
Cell Morphology score, Mean (ARPE-19 cells [2]; human, 72 h, 1 %): 1.0
Cell Morphology score, Mean (ARPE-19 cells [2]; human, 72 h, 2 %): 1.0
Cell Morphology score, Mean (ARPE-19 cells [2]; human, 72 h, […]): 1.0
pH [3, 5]: 8
pH [3, 6]: 8.1
pH [3, 7]: 8
pH [3, 8]: 7.9
pH [3, 9]: 8
pH [3, 10]: 7.9
mOsm [4, 5]: 293 mOsm
mOsm [4, 6]: 307 mOsm
mOsm [4, 7]: 347 mOsm
mOsm [4, 8]: 398 mOsm
mOsm [4, 9]: 493 mOsm
mOsm [4, 10]: 444 mOsm
